Inconclusive results and toxic doses are left out. How the source made its calls: active means survival T/C of 150% or more; inactive means T/C below 125% in these data.
Test system: CD2F1 mice, L1210 leukemia ip, survival T/C
Test: NCI In Vivo Anticancer Drug Screen. Data for tumor model L1210 Leukemia (intraperitoneal) in CD2F1 (CDF1) mice
Conditions: higher = longer survival
Description: The antitumor activity of compounds was measured in mice bearing transplantable tumors. Survival or tumor size were measured and the results are expressed as the measurement made in the treated group (T) divided by the measurement made in the vehicle treated control group (C). The tumor model used in this assay is L1210 Leukemia (intraperitoneal) in CD2F1 (CDF1) mice

[1] = endpoint: mean survival time, dose: 100.0 mg/kg/injection, schedule: Q04DX003 (ip), vehicle: saline with Tween-80
[2] = endpoint: mean survival time, dose: 200.0 mg/kg/injection, schedule: Q04DX003 (ip), vehicle: saline with Tween-80
[3] = endpoint: mean survival time, dose: 400.0 mg/kg/injection, schedule: Q04DX003 (ip), vehicle: saline with Tween-80
[4] = endpoint: mean survival time, dose: 100.0 mg/kg/injection, schedule: Q01DX001 (ip), vehicle: saline
[5] = endpoint: mean survival time, dose: 200.0 mg/kg/injection, schedule: Q01DX001 (ip), vehicle: saline
[6] = endpoint: mean survival time, dose: 400.0 mg/kg/injection, schedule: Q01DX001 (ip), vehicle: saline
[7] = endpoint: mean survival time, dose: 100.0 mg/kg/injection, schedule: Q01DX001 (ip), vehicle: saline with Tween-80
[8] = endpoint: mean survival time, dose: 200.0 mg/kg/injection, schedule: Q01DX001 (ip), vehicle: saline with Tween-80
[9] = endpoint: mean survival time, dose: 400.0 mg/kg/injection, schedule: Q01DX001 (ip), vehicle: saline with Tween-80

Measured: T/C

Cc1cccc(C(=O)OCCBr)c1
inactive: endpoint: mean survival time, dose: 75.0 mg/kg/injection, schedule: Q01DX009 (ip), vehicle: saline with Tween-80 102 % of control

CCC(=O)OCc1cc2ccccc2c(-c2c(O)c(CN3CCOCC3)cc3ccccc23)c1O
inactive: endpoint: mean survival time, dose: 100.0 mg/kg/injection, schedule: Q04DX002 (ip), vehicle: saline with Tween-80 95 % of control | endpoint: mean survival time, dose: 200.0 mg/kg/injection, schedule: Q04DX002 (ip), vehicle: saline with Tween-80 91 % of control | endpoint: mean survival time, dose: 400.0 mg/kg/injection, schedule: Q04DX002 (ip), vehicle: saline with Tween-80 91 % of control

CC(=O)O[C@@H]1CO[C@H]2O[C@H]3[C@@H](C(C=O)=C[C@H](O)[C@@H]4C5=C(C(C)C)CC[C@]5(C)CC[C@@]34C)[C@@]2(O)C1=O
inactive: endpoint: mean survival time, dose: 0.75 mg/kg/injection, schedule: Q01DX009 (ip), vehicle: Klucel (hydroxypropylcellulose) (HPC) 104 % of control | endpoint: mean survival time, dose: 1.5 mg/kg/injection, schedule: Q01DX009 (ip), vehicle: Klucel (hydroxypropylcellulose) (HPC) 104 % of control | endpoint: mean survival time, dose: 3.0 mg/kg/injection, schedule: Q01DX009 (ip), vehicle: Klucel (hydroxypropylcellulose) (HPC) 104 % of control | endpoint: mean survival time, dose: 6.0 mg/kg/injection, schedule: Q01DX009 (ip), vehicle: Klucel (hydroxypropylcellulose) (HPC) 107 % of control

COC(=O)C(C)(C)Br
inactive: [1] 97 % of control | [2] 102 % of control | [3] 102 % of control

COc1cc(/C=N/Nc2ccc([N+](=O)[O-])cc2)cc(OC)c1OC
inactive: endpoint: mean survival time, dose: 100.0 mg/kg/injection, schedule: Q01DX009 (ip), vehicle: saline with Tween-80 97 % of control | endpoint: mean survival time, dose: 200.0 mg/kg/injection, schedule: Q01DX009 (ip), vehicle: saline with Tween-80 94 % of control | endpoint: mean survival time, dose: 400.0 mg/kg/injection, schedule: Q01DX009 (ip), vehicle: saline with Tween-80 98 % of control

CCCC(CCC)=NCCN=C(CCC)CCC
inactive: endpoint: mean survival time, dose: 100.0 mg/kg/injection, schedule: Q04DX003 (ip), vehicle: saline sonified 97 % of control | endpoint: mean survival time, dose: 200.0 mg/kg/injection, schedule: Q04DX003 (ip), vehicle: saline sonified 97 % of control | endpoint: mean survival time, dose: 400.0 mg/kg/injection, schedule: Q04DX003 (ip), vehicle: saline sonified 97 % of control

COC(=O)c1ccccc1NC1=NCCO1
inactive: endpoint: mean survival time, dose: 200.0 mg/kg/injection, schedule: Q04DX003 (ip), vehicle: Klucel (hydroxypropylcellulose) (HPC) 97 % of control | endpoint: mean survival time, dose: 400.0 mg/kg/injection, schedule: Q04DX003 (ip), vehicle: Klucel (hydroxypropylcellulose) (HPC) 86 % of control

COc1ccc2nc3cc(Cl)ccc3c(NCCC[N+](C)(C)CCCCCCCCCC[N+](C)(C)CCCNc3c4ccc(Cl)cc4nc4ccc(OC)cc34)c2c1
inactive: endpoint: mean survival time, dose: 6.25 mg/kg/injection, schedule: Q01DX009 (ip), vehicle: saline with Tween-80 105 % of control

O=C(Nc1cccc([N+](=O)[O-])c1)N(c1ccccc1)c1ccccc1
inactive: [4] 88 % of control | [5] 94 % of control | [6] 93 % of control

CC1CCC(NC(=O)NCCCl)CC1 (configuration not stated)
inactive: [7] 98 % of control | [8] 109 % of control | [9] 101 % of control

NC(=O)c1ncn(C2OC(COP(=O)(O)O)C(O)C2O)c1N (configuration not stated)
inactive: endpoint: mean survival time, dose: 12.5 mg/kg/injection, schedule: Q01DX005 (ip), vehicle: water 97 % of control | endpoint: mean survival time, dose: 25.0 mg/kg/injection, schedule: Q01DX005 (ip), vehicle: water 96 % of control | endpoint: mean survival time, dose: 50.0 mg/kg/injection, schedule: Q01DX005 (ip), vehicle: water 102 % of control | [4] 102 % of control | endpoint: mean survival time, dose: 100.0 mg/kg/injection, schedule: Q01DX005 (ip), vehicle: water 94 % of control | [5] 95 % of control | endpoint: mean survival time, dose: 200.0 mg/kg/injection, schedule: Q01DX005 (ip), vehicle: water 100 % of control | [6] 101 % of control

CCCCCCC[CH2][Sn]1([CH2]CCCCCCC)[O]C2C(CO)OC(n3ccc4c(N)ncnc43)C2[O]1 (configuration not stated)
inactive: endpoint: mean survival time, dose: 0.78 mg/kg/injection, schedule: Q01DX005 (ip), vehicle: other 110 % of control | endpoint: mean survival time, dose: 1.56 mg/kg/injection, schedule: Q01DX005 (ip), vehicle: other 107 % of control | endpoint: mean survival time, dose: 3.13 mg/kg/injection, schedule: Q01DX005 (ip), vehicle: other 115 % of control | endpoint: mean survival time, dose: 6.25 mg/kg/injection, schedule: Q01DX005 (ip), vehicle: other 102 % of control

Cc1cccc(N/N=C2\CCSc3ccccc32)c1
inactive: [7] 100 % of control | [8] 100 % of control | [9] 103 % of control

Nc1ccnc(Oc2ccc(Cl)cc2)n1
inactive: [7] 104 % of control | [8] 104 % of control | [9] 98 % of control

Cc1cccc(/C(=C\c2ccc([N+](=O)[O-])cc2)C(=O)Nc2ccc(S(=O)(=O)F)c(C)c2)c1
inactive: endpoint: mean survival time, dose: 50.0 mg/kg/injection, schedule: Q01DX009 (ip), vehicle: Klucel (hydroxypropylcellulose) (HPC) 91 % of control | endpoint: mean survival time, dose: 100.0 mg/kg/injection, schedule: Q01DX009 (ip), vehicle: Klucel (hydroxypropylcellulose) (HPC) 94 % of control | endpoint: mean survival time, dose: 200.0 mg/kg/injection, schedule: Q01DX009 (ip), vehicle: Klucel (hydroxypropylcellulose) (HPC) 112 % of control

Cc1c2c(cc3c1CCC1(C)C3CCC1C(C)CCC(C)C(C)C)CCCC2 (configuration not stated)
inactive: [1] 94 % of control | [2] 94 % of control | [3] 89 % of control

COc1ccc(/C=C/C(=O)O)cc1
inactive: [7] 102 % of control | [8] 96 % of control | [9] 97 % of control

Oc1c(Cl)cc(Cl)cc1C=NCCSc1ccc(Cl)cc1
inactive: endpoint: median survival time, dose: 25.0 mg/kg/injection, schedule: Q01DX009 (ip), vehicle: Klucel (hydroxypropylcellulose) (HPC) 112 % of control | endpoint: median survival time, dose: 50.0 mg/kg/injection, schedule: Q01DX009 (ip), vehicle: Klucel (hydroxypropylcellulose) (HPC) 101 % of control | endpoint: median survival time, dose: 100.0 mg/kg/injection, schedule: Q01DX009 (ip), vehicle: Klucel (hydroxypropylcellulose) (HPC) 97 % of control | endpoint: median survival time, dose: 200.0 mg/kg/injection, schedule: Q01DX009 (ip), vehicle: Klucel (hydroxypropylcellulose) (HPC) 100 % of control

CC(=O)OCC1OC(n2c(Cl)nc3c(Cl)nc(N)nc32)C(OC(C)=O)C1OC(C)=O (configuration not stated)
inactive: [4] 100 % of control | [5] 100 % of control | [6] 97 % of control

CC(=O)NC1C=C(C)C(=O)O1 (configuration not stated)
inactive: endpoint: mean survival time, dose: 100.0 mg/kg/injection, schedule: Q04DX002 (ip), vehicle: saline 102 % of control | endpoint: mean survival time, dose: 200.0 mg/kg/injection, schedule: Q04DX002 (ip), vehicle: saline 91 % of control | endpoint: mean survival time, dose: 400.0 mg/kg/injection, schedule: Q04DX002 (ip), vehicle: saline 94 % of control

N=c1ccn2c(n1)OC1C(OC(=O)C34CC5CC(CC(C5)C3)C4)C(COC(=O)C34CC5CC(CC(C5)C3)C4)OC12 (configuration not stated)
inactive: endpoint: mean survival time, dose: 12.5 mg/kg/injection, schedule: Q01DX005 (ip), vehicle: distilled water + Tween-80 104 % of control | endpoint: mean survival time, dose: 25.0 mg/kg/injection, schedule: Q01DX005 (ip), vehicle: distilled water + Tween-80 107 % of control | endpoint: mean survival time, dose: 50.0 mg/kg/injection, schedule: Q01DX005 (ip), vehicle: distilled water + Tween-80 121 % of control

O=c1[nH]c2c([N+](=O)[O-])cc(Br)cc2c2ccccc12
inactive: endpoint: mean survival time, dose: 100.0 mg/kg/injection, schedule: Q01DX001 (ip), vehicle: carboxymethylcellulose (CMC) 100 % of control | endpoint: mean survival time, dose: 200.0 mg/kg/injection, schedule: Q01DX001 (ip), vehicle: carboxymethylcellulose (CMC) 94 % of control | endpoint: mean survival time, dose: 400.0 mg/kg/injection, schedule: Q01DX001 (ip), vehicle: carboxymethylcellulose (CMC) 100 % of control

O=C(NCCCl)NC1C(O)C(O)C(O)C(O)C1O (configuration not stated)
inactive: [7] 104 % of control | [8] 98 % of control | [9] 98 % of control

Reference: PubChem BioAssay AID256 (DTP/NCI, 2004)
